# In ChEMBL document CHEMBL3734692, “Design and synthesis of 2-oxindole based multi-targeted inhibitors of PDK1/Akt signaling pathway for the treatment of glioblastoma multiforme” (Eur J Med Chem, 2015):
# pIC50: −log10 of the molar value. Calls of active or inactive are those of the source. No cut-off for these calls is given here.
# Assays:
# [1] = molecular target: T1, Cyclin-dependent kinase 5/CDK5 activator 1 (Homo sapiens) (UniProt Q00535+Q15078); experiment: Inhibition of CDK5/p25 (unknown origin) at 1 uM by selectscreen kinase profiling assay in presence of ATP; assay type: protein-complex assay
# [2] = molecular target: T1, Cyclin-dependent kinase 5/CDK5 activator 1 (Homo sapiens); experiment: Inhibition of CDK5/p35 (unknown origin) at 1 uM by selectscreen kinase profiling assay in presence of ATP; assay type: protein-complex assay
# [3] = molecular target: Serine/threonine-protein kinase mTOR (Homo sapiens) (UniProt P42345); experiment: Inhibition of mTOR (unknown origin) at 1 uM by selectscreen kinase profiling assay in presence of ATP
# [4] = molecular target: Tyrosine-protein kinase Lck (Homo sapiens) (UniProt P06239); experiment: Inhibition of LCK (unknown origin) at 1 uM by selectscreen kinase profiling assay in presence of ATP
# [5] = molecular target: Mitogen-activated protein kinase 1 (Homo sapiens) (UniProt P28482); experiment: Inhibition of ERK2 (unknown origin) at 1 uM by selectscreen kinase profiling assay in presence of ATP
# [6] = molecular target: Mitogen-activated protein kinase 14 (Homo sapiens) (UniProt Q16539); experiment: Inhibition of p38 alpha (unknown origin) at 1 uM by selectscreen kinase profiling assay in presence of ATP
# [7] = molecular target: Mitogen-activated protein kinase 8 (Homo sapiens) (UniProt P45983); experiment: Inhibition of JNK1 (unknown origin) at 1 uM by selectscreen kinase profiling assay in presence of ATP
# [8] = molecular target: Mitogen-activated protein kinase 9 (Homo sapiens) (UniProt P45984); experiment: Inhibition of JNK2 (unknown origin) at 1 uM by selectscreen kinase profiling assay in presence of ATP
# [9] = molecular target: MAP kinase-activated protein kinase 2 (Homo sapiens) (UniProt P49137); experiment: Inhibition of MAPKAPK2 (unknown origin) at 1 uM by selectscreen kinase profiling assay in presence of ATP
# [10] = molecular target: Serine/threonine-protein kinase MARK1 (Homo sapiens) (UniProt Q9P0L2); experiment: Inhibition of MARK1 (unknown origin) at 1 uM by selectscreen kinase profiling assay in presence of ATP
# [11] = molecular target: cAMP-dependent protein kinase catalytic subunit alpha (Homo sapiens) (UniProt P17612); experiment: Inhibition of PRKACA (unknown origin) at 1 uM by selectscreen kinase profiling assay in presence of ATP
# [12] = molecular target: Protein kinase C alpha type (Homo sapiens) (UniProt P17252); experiment: Inhibition of PKCalpha (unknown origin) at 1 uM by selectscreen kinase profiling assay in presence of ATP
# [13] = molecular target: Protein kinase C delta type (Homo sapiens) (UniProt Q05655); experiment: Inhibition of PKCdelta (unknown origin) at 1 uM by selectscreen kinase profiling assay in presence of ATP
# [14] = molecular target: Rho-associated protein kinase 2 (Homo sapiens) (UniProt O75116); experiment: Inhibition of ROCK2 (unknown origin) at 1 uM by selectscreen kinase profiling assay in presence of ATP
# [15] = molecular target: Ribosomal protein S6 kinase alpha-1 (Homo sapiens) (UniProt Q15418); experiment: Inhibition of RSK1 (unknown origin) at 1 uM by selectscreen kinase profiling assay in presence of ATP
# [16] = molecular target: Ribosomal protein S6 kinase beta-1 (Homo sapiens) (UniProt P23443); experiment: Inhibition of RPS6KB1 (unknown origin) at 1 uM by selectscreen kinase profiling assay in presence of ATP
# [17] = molecular target: CDK9/cyclin T1 (Homo sapiens) (UniProt O60563+P50750); experiment: Inhibition of CDK9/cyclin T1 (unknown origin) at 1 uM by selectscreen kinase profiling assay in presence of ATP; assay type: protein-complex assay
# [18] = molecular target: Serine/threonine-protein kinase Chk1 (Homo sapiens, UniProt O14757); experiment: Inhibition of CHK1 (unknown origin) in presence of 10 uM ATP incubated for 1 hr by Z'Lyte assay
# [19] = molecular target: Glycogen synthase kinase-3 alpha (Homo sapiens, UniProt P49840); experiment: Inhibition of GSK3alpha (unknown origin) in presence of 10 uM ATP incubated for 1 hr by Z'Lyte assay
# [20] = Induction of apoptosis in human GSC derived from ANGM-CSS cells assessed as dead cells at 1 uM after 7 days by annexin V-FITC/7-AAD dual staining based cell analysis (reference value: 2.33%); assay type: functional
# [21] = Induction of apoptosis in human GSC derived from ANGM-CSS cells assessed as late apoptotic cells at 1 uM after 7 days by annexin V-FITC/7-AAD dual staining based cell analysis (reference value: 2.51%); assay type: functional
# [22] = tested on: ANGM-CSS; experiment: Effect on human GSC morphology derived from ANGM-CSS cells assessed as outgrowth of cellular processes at 1 uM after 7 days by microscopic analysis; assay type: functional, cell-based
# [23] = tested on: ANGM-CSS; experiment: Induction of human GSC differentiation derived from ANGM-CSS cells assessed as up regulation of GFAP mRNA expression at 1 uM after 7 days by RT-PCR analysis; assay type: functional, cell-based
# [24] = molecular target: RAC-alpha serine/threonine-protein kinase (Homo sapiens) (UniProt P31749); experiment: Inhibition of recombinant Akt1 (unknown origin) incubated for 1 hr by Z'Lyte assay
# [25] = Antiproliferative activity against human ANGM-CSS cells assessed as inhibition of cell growth after 120 hrs by WST1 assay; assay type: functional
# [26] = Antiproliferative activity against human U118MG cells assessed as inhibition of cell growth after 120 hrs by WST1 assay; assay type: functional; conditions: U-118-MG
# [27] = Antiproliferative activity against human U118MG cells assessed as inhibition of cell growth after 144 hrs by WST1 assay; assay type: functional; conditions: U-118-MG
# [28] = Cell cycle arrest in human ANGM-CSS cells assessed as accumulation at S phase at 1 uM after 7 days by based fluorescent reagent based cell analysis (reference value: 4.1%); assay type: functional
# [29] = Cell cycle arrest in human ANGM-CSS cells assessed as accumulation at G0/G1 phase at 1 uM after 7 days by based fluorescent reagent based cell analysis (reference value: 60.7%); assay type: functional
# [30] = molecular target: Aurora kinase A (Homo sapiens) (UniProt O14965); experiment: Inhibition of AURKA (unknown origin) at 1 uM by selectscreen kinase profiling assay in presence of ATP
# [31] = molecular target: Serine/threonine-protein kinase B-raf (Homo sapiens) (UniProt P15056); experiment: Inhibition of BRAF (unknown origin) at 1 uM by selectscreen kinase profiling assay in presence of ATP
# [32] = molecular target: Tyrosine-protein kinase BTK (Homo sapiens) (UniProt Q06187); experiment: Inhibition of BTK (unknown origin) at 1 uM by selectscreen kinase profiling assay in presence of ATP
# [33] = molecular target: Calcium/calmodulin-dependent protein kinase type II subunit alpha (Homo sapiens) (UniProt Q9UQM7); experiment: Inhibition of CAMK2alpha (unknown origin) at 1 uM by selectscreen kinase profiling assay in presence of ATP
# [34] = molecular target: Serine/threonine-protein kinase MRCK alpha (Homo sapiens) (UniProt Q5VT25); experiment: Inhibition of MRCKalpha (unknown origin) at 1 uM by selectscreen kinase profiling assay in presence of ATP
# [35] = molecular target: Cyclin-dependent kinase 1/cyclin B1 (Homo sapiens) (UniProt P06493+P14635); experiment: Inhibition of CDK1/cyclin B (unknown origin) at 1 uM by selectscreen kinase profiling assay in presence of ATP; assay type: protein-complex assay
# T1 sequence (Q00535 whole entry): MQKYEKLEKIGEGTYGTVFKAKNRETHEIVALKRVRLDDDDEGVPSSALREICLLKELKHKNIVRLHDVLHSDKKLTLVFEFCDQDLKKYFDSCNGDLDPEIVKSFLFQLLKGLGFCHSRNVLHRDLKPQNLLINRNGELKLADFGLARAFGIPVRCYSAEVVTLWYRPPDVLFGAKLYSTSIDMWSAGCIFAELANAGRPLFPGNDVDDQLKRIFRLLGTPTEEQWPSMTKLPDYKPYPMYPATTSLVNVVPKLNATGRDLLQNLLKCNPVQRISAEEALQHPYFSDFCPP
# T1 sequence (Q15078 99-307 partner limits assumed): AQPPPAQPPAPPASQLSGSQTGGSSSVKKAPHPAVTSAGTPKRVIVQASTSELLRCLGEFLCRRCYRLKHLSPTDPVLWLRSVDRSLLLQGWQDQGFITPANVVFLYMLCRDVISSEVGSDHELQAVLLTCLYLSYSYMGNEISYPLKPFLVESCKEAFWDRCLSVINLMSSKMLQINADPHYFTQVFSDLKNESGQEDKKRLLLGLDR
# Chain of Protein kinase C delta type (Homo sapiens) (Q05655 whole entry, looked up): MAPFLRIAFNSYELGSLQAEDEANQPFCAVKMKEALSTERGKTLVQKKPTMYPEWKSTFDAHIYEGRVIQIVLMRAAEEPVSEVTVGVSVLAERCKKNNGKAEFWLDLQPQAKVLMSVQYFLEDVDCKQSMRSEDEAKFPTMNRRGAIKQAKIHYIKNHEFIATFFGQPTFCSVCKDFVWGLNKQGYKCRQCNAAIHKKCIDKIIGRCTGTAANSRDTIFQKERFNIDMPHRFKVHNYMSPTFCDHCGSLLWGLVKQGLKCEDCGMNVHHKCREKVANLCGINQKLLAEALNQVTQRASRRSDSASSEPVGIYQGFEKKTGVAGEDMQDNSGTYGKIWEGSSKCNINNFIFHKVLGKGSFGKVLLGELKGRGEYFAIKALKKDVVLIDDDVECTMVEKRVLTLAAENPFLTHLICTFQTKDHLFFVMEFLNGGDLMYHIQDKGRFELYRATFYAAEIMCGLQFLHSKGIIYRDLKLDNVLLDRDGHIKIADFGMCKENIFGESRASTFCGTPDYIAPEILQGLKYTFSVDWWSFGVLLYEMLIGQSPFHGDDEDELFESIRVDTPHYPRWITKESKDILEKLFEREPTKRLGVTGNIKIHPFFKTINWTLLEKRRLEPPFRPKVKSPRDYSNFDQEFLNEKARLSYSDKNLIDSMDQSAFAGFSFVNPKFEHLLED
# Chain of Serine/threonine-protein kinase Chk1 (O14757 whole entry): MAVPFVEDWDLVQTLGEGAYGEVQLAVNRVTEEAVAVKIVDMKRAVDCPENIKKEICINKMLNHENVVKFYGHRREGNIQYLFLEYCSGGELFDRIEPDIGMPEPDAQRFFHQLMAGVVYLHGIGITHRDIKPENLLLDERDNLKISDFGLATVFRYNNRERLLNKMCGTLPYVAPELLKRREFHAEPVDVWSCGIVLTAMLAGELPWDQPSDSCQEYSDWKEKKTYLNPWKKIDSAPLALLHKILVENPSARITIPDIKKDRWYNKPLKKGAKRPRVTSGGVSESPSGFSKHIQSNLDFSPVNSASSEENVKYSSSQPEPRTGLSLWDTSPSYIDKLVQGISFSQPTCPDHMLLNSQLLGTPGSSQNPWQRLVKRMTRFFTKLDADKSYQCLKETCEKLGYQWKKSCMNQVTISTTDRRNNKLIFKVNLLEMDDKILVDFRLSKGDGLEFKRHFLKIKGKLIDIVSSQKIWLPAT
# Chain of Serine/threonine-protein kinase MARK1 (Homo sapiens) (Q9P0L2 whole entry, looked up): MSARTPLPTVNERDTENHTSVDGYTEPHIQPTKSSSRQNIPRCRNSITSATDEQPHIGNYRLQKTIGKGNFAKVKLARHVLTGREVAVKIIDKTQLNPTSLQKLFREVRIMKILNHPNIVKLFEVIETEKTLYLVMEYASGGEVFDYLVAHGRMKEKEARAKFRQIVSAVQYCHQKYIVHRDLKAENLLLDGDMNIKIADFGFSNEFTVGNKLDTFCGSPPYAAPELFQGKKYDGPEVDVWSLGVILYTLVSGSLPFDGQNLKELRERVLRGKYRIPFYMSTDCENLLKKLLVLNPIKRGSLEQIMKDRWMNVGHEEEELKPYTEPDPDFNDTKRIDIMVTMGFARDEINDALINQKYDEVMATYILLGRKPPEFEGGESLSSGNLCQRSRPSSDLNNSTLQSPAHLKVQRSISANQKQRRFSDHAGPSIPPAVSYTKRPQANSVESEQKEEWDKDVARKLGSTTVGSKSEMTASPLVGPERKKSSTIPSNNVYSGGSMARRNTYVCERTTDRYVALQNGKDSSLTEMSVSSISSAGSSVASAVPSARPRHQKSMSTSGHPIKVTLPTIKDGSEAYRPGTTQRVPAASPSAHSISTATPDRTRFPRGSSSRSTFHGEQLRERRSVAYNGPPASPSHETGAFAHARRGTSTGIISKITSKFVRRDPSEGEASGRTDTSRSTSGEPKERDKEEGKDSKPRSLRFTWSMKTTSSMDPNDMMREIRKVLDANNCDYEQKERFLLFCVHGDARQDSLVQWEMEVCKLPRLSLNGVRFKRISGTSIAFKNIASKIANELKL
# Chain of Glycogen synthase kinase-3 alpha (P49840 whole entry): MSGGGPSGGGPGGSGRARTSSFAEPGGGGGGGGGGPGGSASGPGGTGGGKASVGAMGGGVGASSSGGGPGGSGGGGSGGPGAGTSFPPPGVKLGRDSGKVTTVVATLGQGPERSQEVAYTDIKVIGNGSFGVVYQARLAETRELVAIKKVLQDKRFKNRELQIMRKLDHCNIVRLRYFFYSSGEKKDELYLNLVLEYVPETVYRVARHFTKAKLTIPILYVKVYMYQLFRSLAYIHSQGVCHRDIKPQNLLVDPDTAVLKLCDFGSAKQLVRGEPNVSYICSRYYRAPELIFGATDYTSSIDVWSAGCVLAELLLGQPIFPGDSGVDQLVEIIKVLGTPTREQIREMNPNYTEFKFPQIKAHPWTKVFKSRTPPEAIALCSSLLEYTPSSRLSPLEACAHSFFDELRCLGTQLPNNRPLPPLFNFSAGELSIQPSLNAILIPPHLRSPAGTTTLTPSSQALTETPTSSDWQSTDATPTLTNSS
# Chain of MAP kinase-activated protein kinase 2 (Homo sapiens) (P49137 whole entry, looked up): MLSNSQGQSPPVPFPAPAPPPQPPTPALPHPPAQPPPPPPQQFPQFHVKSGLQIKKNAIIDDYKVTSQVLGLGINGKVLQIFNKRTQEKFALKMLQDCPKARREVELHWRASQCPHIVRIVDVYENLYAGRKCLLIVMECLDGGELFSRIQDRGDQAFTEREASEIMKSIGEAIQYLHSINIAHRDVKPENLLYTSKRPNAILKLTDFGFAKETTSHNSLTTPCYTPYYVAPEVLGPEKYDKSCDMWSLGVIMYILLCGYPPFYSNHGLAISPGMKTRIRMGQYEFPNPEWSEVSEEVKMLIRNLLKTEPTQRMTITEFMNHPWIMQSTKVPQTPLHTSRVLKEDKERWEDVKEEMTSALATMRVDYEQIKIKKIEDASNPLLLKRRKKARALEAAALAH
# Chain of Mitogen-activated protein kinase 8 (Homo sapiens) (P45983 whole entry): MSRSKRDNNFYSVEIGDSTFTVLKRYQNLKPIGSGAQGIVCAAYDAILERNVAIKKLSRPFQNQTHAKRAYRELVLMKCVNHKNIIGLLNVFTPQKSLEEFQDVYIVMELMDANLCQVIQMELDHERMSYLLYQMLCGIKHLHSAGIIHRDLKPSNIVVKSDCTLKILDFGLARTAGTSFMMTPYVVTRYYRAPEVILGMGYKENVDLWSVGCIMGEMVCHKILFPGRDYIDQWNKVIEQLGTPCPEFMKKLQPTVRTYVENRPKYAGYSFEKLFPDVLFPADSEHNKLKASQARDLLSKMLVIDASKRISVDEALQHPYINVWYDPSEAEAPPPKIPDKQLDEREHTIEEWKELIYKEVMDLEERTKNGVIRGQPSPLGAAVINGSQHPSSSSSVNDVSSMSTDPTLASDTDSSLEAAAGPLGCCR
# Chain of Ribosomal protein S6 kinase beta-1 (Homo sapiens) (P23443 whole entry, looked up): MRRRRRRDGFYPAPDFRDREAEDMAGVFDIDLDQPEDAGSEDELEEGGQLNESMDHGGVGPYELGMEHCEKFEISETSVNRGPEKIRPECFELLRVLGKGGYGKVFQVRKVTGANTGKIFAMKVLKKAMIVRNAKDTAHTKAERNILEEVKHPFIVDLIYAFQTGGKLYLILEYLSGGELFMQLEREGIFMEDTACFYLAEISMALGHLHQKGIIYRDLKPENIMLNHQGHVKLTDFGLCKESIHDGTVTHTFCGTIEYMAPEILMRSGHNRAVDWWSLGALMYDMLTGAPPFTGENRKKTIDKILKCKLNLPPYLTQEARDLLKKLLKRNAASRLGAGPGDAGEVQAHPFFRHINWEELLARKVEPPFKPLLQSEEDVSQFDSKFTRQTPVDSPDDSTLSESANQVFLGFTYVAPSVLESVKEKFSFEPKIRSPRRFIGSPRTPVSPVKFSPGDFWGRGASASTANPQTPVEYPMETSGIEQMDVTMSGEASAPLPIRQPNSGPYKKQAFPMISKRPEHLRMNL
smiles,measurement,setting,value
COc1cc2c(cc1OC)CN(CC(=O)Nc1ccc3c(c1)/C(=C/c1cnc[nH]1)C(=O)N3)CC2,inhibition,[1],45%
same,inhibition,[2],40%
same,inhibition,[3],-4%
same,inhibition,[4],26%
same,inhibition,[5],26%
same,inhibition,[6],4%
same,inhibition,[7],5%
same,inhibition,[8],5%
same,inhibition,[9],-2%
same,inhibition,[10],27%
same,inhibition,[11],3%
same,inhibition,[12],-2%
same,inhibition,[13],-5%
same,inhibition,[14],-5%
same,inhibition,[15],44%
same,inhibition,[16],18%
same,inhibition,[17],9%
same,pIC50,[18],6.56
same,pIC50,[19],6.05
same,Activity,[20],1.1%
same,Activity,[21],4.93%
same,Activity,[22],Active
same,Activity,[23],Active
same,inhibition,[24],inactive
same,GI50,[25],12.9 µM
same,GI50,[26],16.7 µM
same,GI50,[27],16.1 µM
same,Activity,[28],4.1%
same,Activity,[29],72.6%
same,inhibition,[30],37%
same,inhibition,[31],28%
same,inhibition,[32],12%
same,inhibition,[33],1%
same,inhibition,[34],-8%
same,inhibition,[35],18%
